According to PubChem BioAssay AID328 (DTP/NCI, 2004):
Where “and” joins values, the source holds several entries; their conditions need not be identical. Identical values can stand only once. Toxic doses and inconclusive results are not listed. Rule for the calls: active = survival T/C of 150% or more; inactive = T/C below 125% in these data.

System: BDF1 mice, P388 leukemia ip, median survival T/C
Test: NCI In Vivo Anticancer Drug Screen. Data for tumor model P388 Leukemia (intraperitoneal) in B6D2F1 (BDF1) mice
Conditions: endpoint: median survival time, higher = longer survival
Procedure, shortened: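 Read-out is survival of treated animals expressed relative to the vehicle group, as a T/C ratio.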

[1] = dose: 12.5 mg/kg/injection, schedule: Q01DX009 (ip), vehicle: saline
[2] = dose: 50.0 mg/kg/injection, schedule: Q04DX003 (ip), vehicle: saline
[3] = dose: 50.0 mg/kg/injection, schedule: Q01DX009 (ip), vehicle: saline with Tween-80
[4] = dose: 100.0 mg/kg/injection, schedule: Q01DX009 (ip), vehicle: saline with Tween-80
[5] = dose: 50.0 mg/kg/injection, schedule: Q04DX003 (ip), vehicle: saline with Tween-80
[6] = dose: 200.0 mg/kg/injection, schedule: Q04DX003 (ip), vehicle: saline with Tween-80

Measured: T/C

CCCC1CC[N-]CC1.CCCC1CC[N-]CC1.[Cl][Co][Cl]
inactive: dose: 12.5 mg/kg/injection, schedule: Q01DX009 (ip), vehicle: water 91 % of control and 100 % of control | dose: 25.0 mg/kg/injection, schedule: Q01DX009 (ip), vehicle: water 116 % of control | dose: 50.0 mg/kg/injection, schedule: Q01DX009 (ip), vehicle: water 112 % of control | dose: 50.0 mg/kg/injection, schedule: Q04DX003 (ip), vehicle: water 120 % of control

O=C(O)C(=O)O.O=C([O-])C(=O)O.O=C([O-])C(=O)O.O=C([O-])C(=O)[O-].[K+].[U]
inactive: dose: 1.02 mg/kg/injection, schedule: Q01DX009 (ip), vehicle: saline 90 % of control | dose: 1.56 mg/kg/injection, schedule: Q01DX009 (ip), vehicle: saline 91 % of control | dose: 2.34 mg/kg/injection, schedule: Q01DX009 (ip), vehicle: saline 95 % of control | dose: 6.25 mg/kg/injection, schedule: Q01DX009 (ip), vehicle: saline 95 % of control | dose: 6.25 mg/kg/injection, schedule: Q04DX003 (ip), vehicle: saline 90 % of control | [1] 100 % of control | [2] 86 % of control

COc1cc(O)c2c(c1)C1=C(C)C(C)(O)OC1=CC2=O (stereo unspecified)
inactive: dose: 100.0 mg/kg/injection, schedule: Q01DX001 (ip), vehicle: Klucel (hydroxypropylcellulose) (HPC) 95 % of control | dose: 200.0 mg/kg/injection, schedule: Q01DX001 (ip), vehicle: Klucel (hydroxypropylcellulose) (HPC) 100 % of control | dose: 400.0 mg/kg/injection, schedule: Q01DX001 (ip), vehicle: Klucel (hydroxypropylcellulose) (HPC) 86 % of control

CC(=O)OC1CCC2C3CCC4=C(Cl)C(=O)CCC4C3CCC12C (stereo unspecified)
inactive: dose: 100.0 mg/kg/injection, schedule: Q04DX003 (sc), vehicle: steriod suspending solution 90 % of control | dose: 200.0 mg/kg/injection, schedule: Q04DX003 (sc), vehicle: steriod suspending solution 100 % of control | dose: 400.0 mg/kg/injection, schedule: Q04DX003 (sc), vehicle: steriod suspending solution 100 % of control

Cc1nc(C)c(Br)s1
inactive: dose: 25.0 mg/kg/injection, schedule: Q01DX009 (ip), vehicle: saline with Tween-80 100 % of control | [3] 100 % of control | [4] 107 % of control

O=[N+]([O-])c1ccc(Sc2ccc([N+](=O)[O-])cc2)cc1
inactive: [3] 90 % of control | [5] 100 % of control | [4] 95 % of control | dose: 200.0 mg/kg/injection, schedule: Q01DX009 (ip), vehicle: saline with Tween-80 90 % of control | [6] 100 % of control

Cc1[nH]c(=O)[nH]c(=O)c1/C=C/C(=O)NC(CO)CC(C)C (stereo unspecified)
inactive: [1] 108 % of control | dose: 25.0 mg/kg/injection, schedule: Q01DX009 (ip), vehicle: saline 90 % of control | dose: 25.0 mg/kg/injection, schedule: Q04DX003 (ip), vehicle: saline 107 % of control | dose: 50.0 mg/kg/injection, schedule: Q01DX009 (ip), vehicle: saline 102 % of control | [2] 100 % of control | dose: 100.0 mg/kg/injection, schedule: Q01DX009 (ip), vehicle: saline 91 % of control | dose: 100.0 mg/kg/injection, schedule: Q04DX003 (ip), vehicle: saline 91 % of control | dose: 200.0 mg/kg/injection, schedule: Q01DX009 (ip), vehicle: saline 108 % of control | dose: 200.0 mg/kg/injection, schedule: Q04DX003 (ip), vehicle: saline 109 % of control | dose: 400.0 mg/kg/injection, schedule: Q01DX009 (ip), vehicle: saline 100 % of control | dose: 400.0 mg/kg/injection, schedule: Q04DX003 (ip), vehicle: saline 116 % of control

COC(=O)C/C(=C\c1ccc(OC)c(OC)c1)C(=O)OC
inactive: dose: 100.0 mg/kg/injection, schedule: Q01DX009 (ip), vehicle: Klucel (hydroxypropylcellulose) (HPC) 109 % of control | dose: 100.0 mg/kg/injection, schedule: Q04DX003 (ip), vehicle: Klucel (hydroxypropylcellulose) (HPC) 104 % of control | dose: 200.0 mg/kg/injection, schedule: Q01DX009 (ip), vehicle: Klucel (hydroxypropylcellulose) (HPC) 113 % of control | dose: 200.0 mg/kg/injection, schedule: Q04DX003 (ip), vehicle: Klucel (hydroxypropylcellulose) (HPC) 100 % of control | dose: 400.0 mg/kg/injection, schedule: Q01DX009 (ip), vehicle: Klucel (hydroxypropylcellulose) (HPC) 100 % of control | dose: 400.0 mg/kg/injection, schedule: Q04DX003 (ip), vehicle: Klucel (hydroxypropylcellulose) (HPC) 100 % of control

CN(C)c1ccc(C=Nc2ccc3c(c2)/C(=C/c2ccc(N(C)C)cc2)c2ccccc2-3)cc1
inactive: dose: 25.0 mg/kg/injection, schedule: Q04DX003 (ip), vehicle: saline with Tween-80 116 % of control | [5] 122 % of control | dose: 100.0 mg/kg/injection, schedule: Q04DX003 (ip), vehicle: saline with Tween-80 116 % of control | [6] 121 % of control
